Laboratory results: ChEMBL document CHEMBL1201862, “PubChem BioAssay data set” (2004)
The source made the active and inactive calls.

Key:
[1] = target: Intestinal-type alkaline phosphatase (Mus musculus, UniProt P24822); experiment: PubChem AID 488875; format: functional
[2] = target: T1, Intestinal-type alkaline phosphatase (Homo sapiens, UniProt P09923); experiment: human intestinal alkaline phosphatase activators, dose response, biochemical, luminescence, uHTS hits (AID 463120); format: functional
[3] = target: T2, Alkaline phosphatase, tissue-nonspecific isozyme (Homo sapiens, UniProt P05186); experiment: TNAP enzyme activators, dose response, selectivity assay for human IAP activator project, biochemical, TNAP isozyme, human IAP uHTS hits (AID 488886); format: functional;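 note: potency of compounds raising TNAP activity as a selectivity check on IAP activators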
T2 sequence (P05186 whole entry): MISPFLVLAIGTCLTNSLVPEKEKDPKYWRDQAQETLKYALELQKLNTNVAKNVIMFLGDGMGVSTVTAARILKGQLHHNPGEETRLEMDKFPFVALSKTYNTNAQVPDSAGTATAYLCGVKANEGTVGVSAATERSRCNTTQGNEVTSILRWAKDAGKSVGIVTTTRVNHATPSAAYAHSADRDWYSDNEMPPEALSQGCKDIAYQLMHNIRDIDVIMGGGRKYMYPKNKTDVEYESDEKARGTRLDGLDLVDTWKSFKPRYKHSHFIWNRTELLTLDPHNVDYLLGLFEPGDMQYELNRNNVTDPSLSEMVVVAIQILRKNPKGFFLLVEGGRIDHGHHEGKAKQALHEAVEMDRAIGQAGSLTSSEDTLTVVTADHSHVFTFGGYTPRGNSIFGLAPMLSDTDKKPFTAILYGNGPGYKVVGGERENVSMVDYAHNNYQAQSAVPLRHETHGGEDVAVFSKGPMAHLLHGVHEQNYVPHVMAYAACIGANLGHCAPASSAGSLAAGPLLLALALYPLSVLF

[4] = target: T1, Intestinal-type alkaline phosphatase; experiment: human IAP activators, dose response, biochemical, luminescent, uHTS hits, set 2 (AID 488817); format: functional;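 note: potency of activators that raise enzyme activity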
[5] = NIH-3T3 fibroblast cytotoxicity, dose response, cytotoxicity control, cell-based, fluorescence, Alamar Blue, secondary assay (AID 2327); format: functional;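 note: NIH-3T3 mouse fibroblasts cultured with fluconazole at 8 µg/mL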
[6] = target: 1-phosphatidylinositol 4,5-bisphosphate phosphodiesterase gamma-1 (Homo sapiens, UniProt P19174); experiment: Counterscreen for inhibitors of phospholipase C isozymes (PLC-B3): Fluorescence-based biochemical high throughput dose response assay to identify inhibitors of phospholipase C isozymes (PLC-gamma1).
Streptococcus = experiment: Group A Streptococcus viability loss, dose response, counter-screen for streptokinase expression inhibitor project, luminescence, BacTiterGlo (AID 1915); format: functional, organism-based;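 note: potency for reduction of bacterial viability or growth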
[7] = target: Matrix metalloproteinase-14 (Homo sapiens, UniProt P50281); experiment: Dose Response confirmation of uHTS hits for a small molecule inhibitors of MT1-MMP activation in a fluorescence assay set 2.; format: functional
Caspase-9 = Caspase-9 (Homo sapiens, UniProt P55211); experiment: caspase-9 enzyme inhibition, dose response, selectivity assay for caspase-6 inhibitor project, biochemical, fluorescence, plate reader, cherry-picked samples (AID 743293)
[8] = target: T3, Lysine-specific demethylase 4C (Homo sapiens, UniProt Q9H3R0); experiment: GASC-1 (JMJD2C) histone demethylase inhibitors, dose response, biochemical, DELFIA europium, cherry-picked samples (AID 488835); format: functional
T3 sequence (Q9H3R0 whole entry): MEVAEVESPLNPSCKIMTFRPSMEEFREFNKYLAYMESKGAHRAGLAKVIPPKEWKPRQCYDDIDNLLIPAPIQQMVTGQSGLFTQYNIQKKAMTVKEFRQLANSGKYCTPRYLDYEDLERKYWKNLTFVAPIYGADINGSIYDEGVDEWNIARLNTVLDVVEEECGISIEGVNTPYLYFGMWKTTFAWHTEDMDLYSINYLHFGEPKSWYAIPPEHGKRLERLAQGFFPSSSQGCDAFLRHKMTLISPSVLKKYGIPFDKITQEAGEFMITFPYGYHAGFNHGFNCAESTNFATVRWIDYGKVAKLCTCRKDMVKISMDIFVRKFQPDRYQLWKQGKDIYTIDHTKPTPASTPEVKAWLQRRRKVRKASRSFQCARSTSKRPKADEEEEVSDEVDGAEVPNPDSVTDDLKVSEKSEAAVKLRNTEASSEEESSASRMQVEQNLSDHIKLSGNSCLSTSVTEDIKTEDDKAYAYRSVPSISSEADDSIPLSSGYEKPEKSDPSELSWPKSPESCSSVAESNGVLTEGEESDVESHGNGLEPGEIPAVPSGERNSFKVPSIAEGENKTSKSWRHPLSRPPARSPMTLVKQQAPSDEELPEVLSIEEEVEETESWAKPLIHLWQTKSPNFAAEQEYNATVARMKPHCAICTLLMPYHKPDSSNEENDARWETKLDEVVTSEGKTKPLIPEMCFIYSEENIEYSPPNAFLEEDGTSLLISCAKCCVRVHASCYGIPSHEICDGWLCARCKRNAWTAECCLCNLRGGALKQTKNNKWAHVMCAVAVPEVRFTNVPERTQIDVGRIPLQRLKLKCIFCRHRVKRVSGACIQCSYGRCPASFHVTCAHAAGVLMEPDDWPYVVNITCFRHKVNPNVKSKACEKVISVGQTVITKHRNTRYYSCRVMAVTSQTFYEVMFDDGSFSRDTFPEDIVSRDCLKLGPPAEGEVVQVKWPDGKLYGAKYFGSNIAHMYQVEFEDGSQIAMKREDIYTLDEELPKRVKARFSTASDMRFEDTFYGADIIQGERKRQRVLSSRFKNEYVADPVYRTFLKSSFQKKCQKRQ

Caspase-6 = target: T4, Caspase-6 (Homo sapiens, UniProt P55212); experiment: human caspase-6 inhibitors, dose response, biochemical, VEID-R110 fluorescence, cherry-pick (AID 720632)
T4 sequence (P55212 whole entry): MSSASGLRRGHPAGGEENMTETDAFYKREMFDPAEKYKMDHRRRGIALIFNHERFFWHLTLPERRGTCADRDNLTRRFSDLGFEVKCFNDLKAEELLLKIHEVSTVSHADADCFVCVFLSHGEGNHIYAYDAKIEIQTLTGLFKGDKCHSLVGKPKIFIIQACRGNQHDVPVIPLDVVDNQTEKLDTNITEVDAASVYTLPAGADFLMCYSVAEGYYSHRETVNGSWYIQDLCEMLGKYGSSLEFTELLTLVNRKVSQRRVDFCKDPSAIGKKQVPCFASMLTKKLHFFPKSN

Caspase-8 = Caspase-8 (Homo sapiens, UniProt Q14790); experiment: caspase-8 inhibition counter-screen, dose response, selectivity assay for caspase-6 inhibitor project, biochemical, Z-IETD-R110 fluorescence, cherry-picked samples (AID 743294)
[9] = target: RNA-editing ligase 1, mitochondrial (Trypanosoma brucei brucei, UniProt P86926); experiment: TbREL1 ligase inhibitors, dose response, biochemical, fluorescence, Trypanosoma brucei (AID 1117295); format: functional
[10] = test system: Streptococcus sp. 'group A'; experiment: growth inhibition of control SK(-) GAS strain, dose response, counter-screen for streptokinase expression inhibitor project, luminescence, kanamycin, BacTiterGlo, confirmation (AID 1900); format: functional, organism-based
Troponin, cardiac muscle = Troponin, cardiac muscle (Homo sapiens, UniProt P19429+P45379+P63316); experiment: inhibitors of cardiac thin filament calcium sensitivity, dose response, biochemical, fluorescence, cardiac regulated thin filaments, triplicate IC50 (AID 504742); format: protein-complex assay
Vero = Vero cell cytotoxicity, cytotoxicity control for flavivirus capping enzyme inhibitors (AID 588742); format: functional; conditions: Chlorocebus sabaeus
Streptokinase A = target: T5, Streptokinase A (Streptococcus pyogenes serotype M1, UniProt P10520); experiment: S. pyogenes streptokinase expression inhibitors, potency, dose response, plasminogen activation absorbance, OD405 (AID 1914); format: functional, Streptococcus pyogenes M1 GAS;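 note: secreted streptokinase activity via plasminogen activation per viability signal from cell pellet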
T5 sequence (P10520 whole entry): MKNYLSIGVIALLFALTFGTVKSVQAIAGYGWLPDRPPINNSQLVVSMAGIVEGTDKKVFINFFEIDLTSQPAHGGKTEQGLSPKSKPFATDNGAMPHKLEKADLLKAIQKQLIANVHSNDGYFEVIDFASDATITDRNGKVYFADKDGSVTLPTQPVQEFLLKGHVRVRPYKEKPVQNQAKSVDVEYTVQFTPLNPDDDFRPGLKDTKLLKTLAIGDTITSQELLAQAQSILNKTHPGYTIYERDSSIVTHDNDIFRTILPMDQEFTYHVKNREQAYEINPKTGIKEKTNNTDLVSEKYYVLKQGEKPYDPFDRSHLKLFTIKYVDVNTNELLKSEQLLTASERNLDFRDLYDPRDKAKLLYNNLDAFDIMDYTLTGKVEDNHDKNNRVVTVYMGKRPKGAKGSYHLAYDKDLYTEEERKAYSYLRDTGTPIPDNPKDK

[11] = target: 1-phosphatidylinositol 4,5-bisphosphate phosphodiesterase beta-3 (Homo sapiens, UniProt Q01970); experiment: Fluorescence-based biochemical high throughput dose response assay to identify inhibitors of phospholipase C isozymes (PLC-B3).
[12] = target: Heat shock protein HSP 90-alpha (Homo sapiens, UniProt P07900); format: functional, organism-based
Caspase-3 = target: T6, Caspase-3 (Homo sapiens, UniProt P42574); experiment: caspase-3 enzyme inhibitors, selectivity check, dose response, selectivity assay for caspase-6 allosteric inhibitor project, biochemical, fluorescence, cherry-picked samples (AID 743291)
T6 sequence (P42574 whole entry): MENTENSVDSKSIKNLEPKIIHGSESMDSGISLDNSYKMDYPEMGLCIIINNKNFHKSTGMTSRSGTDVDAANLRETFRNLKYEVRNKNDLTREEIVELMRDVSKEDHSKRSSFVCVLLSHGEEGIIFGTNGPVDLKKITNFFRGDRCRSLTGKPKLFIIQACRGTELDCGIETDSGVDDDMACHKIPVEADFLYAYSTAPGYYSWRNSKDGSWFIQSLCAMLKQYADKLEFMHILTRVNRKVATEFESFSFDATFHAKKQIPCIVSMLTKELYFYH

[13] = C. albicans growth with fluconazole, confirmation, fluorescence, retest (AID 2467); format: functional, cell-based
NS3 = NS3 (Hepatitis C virus, UniProt A3EZJ3); experiment: PubChem AID 2173; design: species or system Hepacivirus hominis
Large T antigen = Large T antigen (Simian virus 40, UniProt P03070); format: functional, Betapolyomavirus macacae;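 note: Confirmatory-stage PubChem screen for compounds that inhibit SV40 T antigen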
Caspase-7 = Caspase-7 (Homo sapiens, UniProt P55210); experiment: human caspase-7 inhibitors, dose response, selectivity assay for caspase-6 inhibitor project, biochemical, DEVD-R110 fluorescence, cherry-pick (AID 743295)
[14] = target: Lysine-specific demethylase 4A (Homo sapiens, UniProt O75164); experiment: JMJD2A histone demethylase inhibitors, dose response, selectivity assay for GASC-1 inhibitor project, biochemical, DELFIA europium, cherry-picked samples (AID 488840)
Phosphomannomutase 2 = Phosphomannomutase 2 (Homo sapiens, UniProt O15305); experiment: Counter screen SAR assay for PMM2 inhibitors via a fluorescence intensity assay. [Related pubchem assays (depositor defined):AID1545, AID1574]
[15] = target: T7, Mannose-6-phosphate isomerase (Homo sapiens, UniProt P34949); experiment: PMI enzyme inhibitors, confirmation, biochemical, fluorescence intensity (AID 1535)
T7 sequence (P34949 whole entry): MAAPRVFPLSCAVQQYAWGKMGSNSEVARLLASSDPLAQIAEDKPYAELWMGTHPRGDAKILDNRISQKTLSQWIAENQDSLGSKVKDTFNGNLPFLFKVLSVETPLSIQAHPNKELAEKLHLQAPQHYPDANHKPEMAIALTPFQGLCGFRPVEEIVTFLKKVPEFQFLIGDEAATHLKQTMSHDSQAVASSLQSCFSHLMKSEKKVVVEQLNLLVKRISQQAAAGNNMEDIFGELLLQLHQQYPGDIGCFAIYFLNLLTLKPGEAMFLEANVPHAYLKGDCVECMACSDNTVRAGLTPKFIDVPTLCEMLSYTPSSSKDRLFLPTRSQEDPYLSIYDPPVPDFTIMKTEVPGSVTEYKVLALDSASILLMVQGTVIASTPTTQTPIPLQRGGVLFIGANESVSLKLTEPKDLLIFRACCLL

T1 sequence (P09923 whole entry): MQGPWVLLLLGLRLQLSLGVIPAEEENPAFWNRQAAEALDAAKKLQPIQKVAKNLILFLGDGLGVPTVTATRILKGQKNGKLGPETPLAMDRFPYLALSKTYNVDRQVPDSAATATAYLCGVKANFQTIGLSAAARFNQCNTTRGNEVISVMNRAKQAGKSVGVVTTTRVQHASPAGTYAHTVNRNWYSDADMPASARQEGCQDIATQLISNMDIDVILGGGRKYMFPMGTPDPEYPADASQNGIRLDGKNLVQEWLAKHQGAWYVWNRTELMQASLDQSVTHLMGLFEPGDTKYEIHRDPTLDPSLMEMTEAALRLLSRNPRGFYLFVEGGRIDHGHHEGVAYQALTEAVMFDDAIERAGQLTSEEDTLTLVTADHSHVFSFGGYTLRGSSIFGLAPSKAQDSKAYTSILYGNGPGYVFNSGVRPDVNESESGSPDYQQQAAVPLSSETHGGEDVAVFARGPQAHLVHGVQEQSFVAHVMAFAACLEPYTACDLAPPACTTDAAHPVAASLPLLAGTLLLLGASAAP
Caspase-7, sequence (P55210 24-198 limits assumed): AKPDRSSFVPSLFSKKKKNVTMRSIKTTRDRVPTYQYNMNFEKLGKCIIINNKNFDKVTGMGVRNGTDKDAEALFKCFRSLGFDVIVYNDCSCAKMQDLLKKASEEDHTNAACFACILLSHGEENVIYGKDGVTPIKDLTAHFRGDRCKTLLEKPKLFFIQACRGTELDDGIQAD
Caspase-7, sequence (P55210 207-303 limits assumed): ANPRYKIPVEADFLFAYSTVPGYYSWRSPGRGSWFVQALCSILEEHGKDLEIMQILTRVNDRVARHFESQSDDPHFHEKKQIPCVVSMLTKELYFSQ
1-phosphatidylinositol 4,5-bisphosphate phosphodiesterase gamma-1, sequence (P19174 whole entry): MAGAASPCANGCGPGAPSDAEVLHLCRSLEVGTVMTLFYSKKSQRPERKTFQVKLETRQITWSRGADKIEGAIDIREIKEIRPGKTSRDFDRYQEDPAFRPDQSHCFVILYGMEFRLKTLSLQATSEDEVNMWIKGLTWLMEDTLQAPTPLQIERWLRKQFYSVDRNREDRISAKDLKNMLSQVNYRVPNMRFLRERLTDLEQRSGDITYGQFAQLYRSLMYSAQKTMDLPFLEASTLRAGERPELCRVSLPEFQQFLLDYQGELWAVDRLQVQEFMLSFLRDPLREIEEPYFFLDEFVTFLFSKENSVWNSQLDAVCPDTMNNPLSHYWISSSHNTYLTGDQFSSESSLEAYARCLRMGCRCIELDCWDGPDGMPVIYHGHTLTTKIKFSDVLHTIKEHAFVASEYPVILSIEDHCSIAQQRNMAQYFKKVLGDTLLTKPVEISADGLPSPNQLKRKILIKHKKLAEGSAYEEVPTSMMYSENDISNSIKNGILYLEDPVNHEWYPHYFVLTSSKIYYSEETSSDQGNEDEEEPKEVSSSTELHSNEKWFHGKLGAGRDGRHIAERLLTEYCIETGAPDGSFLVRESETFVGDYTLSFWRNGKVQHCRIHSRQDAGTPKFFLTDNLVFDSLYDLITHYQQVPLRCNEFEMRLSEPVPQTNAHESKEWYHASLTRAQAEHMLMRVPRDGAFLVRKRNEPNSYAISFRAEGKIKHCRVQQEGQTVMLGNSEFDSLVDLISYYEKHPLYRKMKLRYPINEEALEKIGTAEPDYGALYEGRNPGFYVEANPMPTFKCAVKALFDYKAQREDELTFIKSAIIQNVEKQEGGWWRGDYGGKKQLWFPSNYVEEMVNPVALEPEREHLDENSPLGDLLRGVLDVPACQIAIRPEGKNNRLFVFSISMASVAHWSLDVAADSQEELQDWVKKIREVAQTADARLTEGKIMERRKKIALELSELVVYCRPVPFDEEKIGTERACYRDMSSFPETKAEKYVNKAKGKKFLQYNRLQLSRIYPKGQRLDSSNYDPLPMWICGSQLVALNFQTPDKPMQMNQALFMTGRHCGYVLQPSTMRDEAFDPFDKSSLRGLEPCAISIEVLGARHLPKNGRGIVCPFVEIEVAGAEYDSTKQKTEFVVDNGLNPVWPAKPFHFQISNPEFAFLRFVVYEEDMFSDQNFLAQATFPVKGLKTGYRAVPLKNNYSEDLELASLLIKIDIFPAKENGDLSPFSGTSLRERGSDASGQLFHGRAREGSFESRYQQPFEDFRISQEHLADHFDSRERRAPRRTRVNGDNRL
1-phosphatidylinositol 4,5-bisphosphate phosphodiesterase beta-3, sequence (Q01970 whole entry): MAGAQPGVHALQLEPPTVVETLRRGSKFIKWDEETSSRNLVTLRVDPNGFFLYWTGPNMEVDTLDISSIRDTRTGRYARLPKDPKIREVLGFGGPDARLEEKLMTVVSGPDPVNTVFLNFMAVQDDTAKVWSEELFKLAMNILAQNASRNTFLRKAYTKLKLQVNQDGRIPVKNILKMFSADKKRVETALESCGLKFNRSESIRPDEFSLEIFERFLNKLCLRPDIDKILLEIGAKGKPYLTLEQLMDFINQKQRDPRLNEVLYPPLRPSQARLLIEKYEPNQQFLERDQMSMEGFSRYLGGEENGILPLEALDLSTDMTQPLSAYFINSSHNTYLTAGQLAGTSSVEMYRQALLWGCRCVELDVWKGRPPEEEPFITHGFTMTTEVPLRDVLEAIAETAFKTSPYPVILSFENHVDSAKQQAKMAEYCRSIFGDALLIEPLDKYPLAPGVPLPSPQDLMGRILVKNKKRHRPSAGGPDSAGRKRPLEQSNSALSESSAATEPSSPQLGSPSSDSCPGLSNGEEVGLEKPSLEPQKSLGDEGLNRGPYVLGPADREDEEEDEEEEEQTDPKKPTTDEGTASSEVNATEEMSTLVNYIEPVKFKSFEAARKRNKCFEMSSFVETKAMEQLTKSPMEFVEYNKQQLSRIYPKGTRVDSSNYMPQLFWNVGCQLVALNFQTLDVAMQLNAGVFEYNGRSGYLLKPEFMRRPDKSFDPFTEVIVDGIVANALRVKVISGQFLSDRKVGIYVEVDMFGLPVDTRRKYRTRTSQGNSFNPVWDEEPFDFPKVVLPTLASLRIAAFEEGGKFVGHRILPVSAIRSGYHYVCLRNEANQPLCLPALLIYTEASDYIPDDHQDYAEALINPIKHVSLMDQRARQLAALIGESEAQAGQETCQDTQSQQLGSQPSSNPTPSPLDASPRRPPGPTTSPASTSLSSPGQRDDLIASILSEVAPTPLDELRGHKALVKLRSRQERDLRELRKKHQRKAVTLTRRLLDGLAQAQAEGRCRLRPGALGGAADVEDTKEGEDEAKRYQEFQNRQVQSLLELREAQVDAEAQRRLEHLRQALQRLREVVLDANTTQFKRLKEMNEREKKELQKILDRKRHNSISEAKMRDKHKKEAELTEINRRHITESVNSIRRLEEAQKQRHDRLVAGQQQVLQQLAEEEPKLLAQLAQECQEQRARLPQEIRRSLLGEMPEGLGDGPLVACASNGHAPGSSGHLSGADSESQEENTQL
RNA-editing ligase 1, mitochondrial, sequence (P86926 whole entry): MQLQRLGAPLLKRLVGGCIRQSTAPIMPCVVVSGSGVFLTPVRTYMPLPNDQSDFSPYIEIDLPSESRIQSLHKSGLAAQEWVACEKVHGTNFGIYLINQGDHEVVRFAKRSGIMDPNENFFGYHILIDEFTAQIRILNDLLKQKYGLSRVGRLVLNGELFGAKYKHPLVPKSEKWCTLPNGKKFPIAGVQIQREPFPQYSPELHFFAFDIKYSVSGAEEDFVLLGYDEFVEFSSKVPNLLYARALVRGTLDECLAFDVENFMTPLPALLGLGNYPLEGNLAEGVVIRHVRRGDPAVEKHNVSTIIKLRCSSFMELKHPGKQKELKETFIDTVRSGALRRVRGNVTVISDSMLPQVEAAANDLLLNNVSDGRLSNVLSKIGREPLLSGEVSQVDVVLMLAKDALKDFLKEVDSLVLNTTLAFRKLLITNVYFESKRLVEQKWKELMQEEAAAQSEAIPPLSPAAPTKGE
Lysine-specific demethylase 4A, sequence (O75164 whole entry): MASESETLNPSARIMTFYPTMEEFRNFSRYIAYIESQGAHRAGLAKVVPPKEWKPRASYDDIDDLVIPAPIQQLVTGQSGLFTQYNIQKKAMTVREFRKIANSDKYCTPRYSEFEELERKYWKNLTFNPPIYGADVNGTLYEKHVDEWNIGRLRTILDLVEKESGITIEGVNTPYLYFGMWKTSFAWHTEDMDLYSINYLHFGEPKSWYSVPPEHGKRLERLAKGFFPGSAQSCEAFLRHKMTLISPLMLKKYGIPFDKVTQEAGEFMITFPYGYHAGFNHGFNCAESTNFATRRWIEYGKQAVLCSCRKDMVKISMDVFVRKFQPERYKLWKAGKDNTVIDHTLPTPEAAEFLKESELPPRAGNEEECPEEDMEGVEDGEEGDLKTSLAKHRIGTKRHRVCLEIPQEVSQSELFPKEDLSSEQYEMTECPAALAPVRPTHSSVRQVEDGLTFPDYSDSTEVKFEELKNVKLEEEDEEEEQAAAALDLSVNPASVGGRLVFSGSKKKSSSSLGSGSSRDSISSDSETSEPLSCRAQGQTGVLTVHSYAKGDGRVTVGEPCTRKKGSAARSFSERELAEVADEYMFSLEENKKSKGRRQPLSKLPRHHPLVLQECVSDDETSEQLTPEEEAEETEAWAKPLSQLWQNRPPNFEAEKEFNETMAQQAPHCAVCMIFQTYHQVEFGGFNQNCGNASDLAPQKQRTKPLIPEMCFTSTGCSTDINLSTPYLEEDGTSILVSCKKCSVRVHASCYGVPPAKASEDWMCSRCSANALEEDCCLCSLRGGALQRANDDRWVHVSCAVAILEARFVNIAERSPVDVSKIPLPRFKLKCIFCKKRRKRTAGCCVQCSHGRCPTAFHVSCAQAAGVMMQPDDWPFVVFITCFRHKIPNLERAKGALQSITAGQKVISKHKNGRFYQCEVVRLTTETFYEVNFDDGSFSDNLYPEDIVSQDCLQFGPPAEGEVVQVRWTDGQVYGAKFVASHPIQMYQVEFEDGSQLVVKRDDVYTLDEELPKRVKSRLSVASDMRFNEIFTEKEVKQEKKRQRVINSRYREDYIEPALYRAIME

For COc1ccccc1CNC(=O)CN(c1ccc(C)cc1)S(=O)(=O)c1c(C)noc1C, the EC50 [1] was 67.5 µM (active), the EC50 [2] was 86 µM (active) and the EC50 [3] was 76.2 µM (active). For the same molecule, the EC50 [4] was 99 µM (active).

In the case of O=c1cc2oc3cc(O)c(O)cc3c(-c3ccccc3[N+](=O)[O-])c-2cc1O, the EC50 [5] is reported as 8.25 µM (active), the IC50 [6] is reported as 67.5 µM (inactive) and the EC50 (Streptococcus) is reported as 10.2 µM (active). For the same molecule, the IC50 [7] was 17.9 µM (active), the AC50 (Caspase-9) was > 70 µM (inactive) and the AC50 [8] was 1.97 µM (active). For the same molecule, the AC50 (Caspase-6) was 0.018 µM (active), the AC50 (Caspase-8) was 41.3 µM (active) and the IC50 [9] was > 96.6 µM (inactive). The EC50 [10] was 7.94 µM (active), the IC50 (Troponin, cardiac muscle) was 1.64 µM (active) and the CC50 (Vero) was 12.2 µM (active). The EC50 (Streptokinase A) was 11.2 µM (active), the IC50 [11] was > 123 µM (inactive) and the AC50 [12] was 2.9 µM (active). The AC50 (Caspase-3) was 0.122 µM (active), the EC50 [13] was 1.07 µM (active) and the IC50 (NS3) was 0.99 µM (active). The IC50 (Large T antigen) was 5.91 µM (active), the AC50 (Caspase-7) was 1.33 µM (active) and the AC50 [14] was 2.01 µM (active).

For COc1ccc(/N=c2\ssnc2Cl)cc1OC, the IC50 (Phosphomannomutase 2) was > 100 µM (inactive) and the IC50 [15] was 36.7 µM (active).
